The source of these data is patent US8268817B2, “Substituted oxazole ketone modulators of fatty acid amide hydrolase” (The Scripps Research Institute, priority 2006, dated 2012).

For assay [1] the following is noted: model of multiple sclerosis; cited from earlier work.
For assay [2] the following is noted: rats; cited from earlier work.
For assay [3] the following is noted: rats; cited from earlier work. The source holds these as a separate data set.
The target in assay [4] is T1, FAAH (solubilized liver plasma membrane extract) (Rattus norvegicus, UniProt P97612).
T1 construct: using a solubilized liver plasma membrane extract containing FAAH; from tissue; host or cells: liver (plasma membrane extract, solubilized)
T1 sequence (P97612 1-579): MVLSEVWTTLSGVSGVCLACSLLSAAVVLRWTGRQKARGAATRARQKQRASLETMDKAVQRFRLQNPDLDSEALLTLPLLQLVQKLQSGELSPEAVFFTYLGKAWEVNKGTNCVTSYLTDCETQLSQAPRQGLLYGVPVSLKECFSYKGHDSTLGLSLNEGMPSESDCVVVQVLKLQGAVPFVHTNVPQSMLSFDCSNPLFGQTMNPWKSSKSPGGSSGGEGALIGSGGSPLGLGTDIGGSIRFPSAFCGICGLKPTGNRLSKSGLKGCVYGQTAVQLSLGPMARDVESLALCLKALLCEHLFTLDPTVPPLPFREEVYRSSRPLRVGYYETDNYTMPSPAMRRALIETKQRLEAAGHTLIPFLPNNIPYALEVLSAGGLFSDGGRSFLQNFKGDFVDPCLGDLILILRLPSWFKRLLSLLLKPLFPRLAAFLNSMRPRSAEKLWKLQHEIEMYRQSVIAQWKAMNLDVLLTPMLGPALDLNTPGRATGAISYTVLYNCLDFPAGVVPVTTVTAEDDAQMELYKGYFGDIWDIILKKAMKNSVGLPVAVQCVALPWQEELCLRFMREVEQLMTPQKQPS
The assay can be described thus: FAAH enzyme assay, hydrolysis of 14C-oleamide to oleic acid. It counts as biochemical. The note with it: 14C-oleamide substrate, pH 9.0, 20-23° C., Dixon method. How it is done:
K; values were determined by the Dixon. Method (x-intercepts of weighted linear fits of [I] versus 1/rate plots at constant substrate concentration, which were converted to Ki values using the formula Ki=−xint/[1+[S]/Km]).

The target of assay [5] is T2, FAAH (Homo sapiens, UniProt O00519).
T2 sequence (O00519 1-579): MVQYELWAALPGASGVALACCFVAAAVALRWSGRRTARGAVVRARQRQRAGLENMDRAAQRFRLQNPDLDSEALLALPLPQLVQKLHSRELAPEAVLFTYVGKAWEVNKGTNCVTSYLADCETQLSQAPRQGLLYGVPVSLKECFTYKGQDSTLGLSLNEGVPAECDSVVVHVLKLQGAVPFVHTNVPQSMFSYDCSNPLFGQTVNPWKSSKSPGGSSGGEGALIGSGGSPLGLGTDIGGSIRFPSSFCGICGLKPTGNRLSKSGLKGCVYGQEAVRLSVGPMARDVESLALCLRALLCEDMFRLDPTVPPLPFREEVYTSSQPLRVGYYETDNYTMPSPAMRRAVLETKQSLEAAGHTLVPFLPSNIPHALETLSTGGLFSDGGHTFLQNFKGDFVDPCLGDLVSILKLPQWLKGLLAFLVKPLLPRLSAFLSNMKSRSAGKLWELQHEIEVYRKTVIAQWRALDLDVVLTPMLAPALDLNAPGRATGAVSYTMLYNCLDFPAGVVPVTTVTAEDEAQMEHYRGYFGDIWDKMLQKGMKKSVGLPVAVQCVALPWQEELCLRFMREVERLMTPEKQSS
The following applies: cited from earlier work.

For assay [6] the following is noted: rats; cited from earlier work. The source holds these as a separate data set.
For assay [7] the following is noted: rats; cited from earlier work. The source holds these as a separate data set.
For assay [8] the following is noted: rat; cited from earlier work.
For assay [9] the following is noted: rats; cited from earlier work. The source holds these as a separate data set.

As to `CCCCCCCCCCCCCCCCS(=O)(=O)F` [AM374], in [1], the “effect on spasticity in CREAE mice” value is on record as “significantly reduce spasticity”.
Regarding `Cc1nc(-c2ccccc2)c(-c2ccccc2)n1CCCCCCNC(=O)Oc1ccccc1F` [BMS-1], the “analgesic effect in Chung spinal nerve ligation model” value in assay [2] was “analgesic effect”. For the same compound, the “analgesic effect in Hargraves test” value in assay [3] is on record as “analgesic effect”.
In assay [4], `O=C(CCCCCCc1ccccc1)c1ncc(C(=O)N2CCOCC2)o1` [Example 4, 1-(5-(Morpholine-4-carbonyl)oxazol-2-yl)-7-phenylheptan-1-one] returned a Ki of 24 nM.
Same read-out and setting: under `O=C(CCCCCCc1ccccc1)c1ncc(C(=O)N2CCCCC2)o1` [Example 5, 7-Phenyl-1-(5-(piperidine-1-carbonyl)oxazol-2-yl)heptan-1-one] stands 8 nM.
Same read-out and setting: as for `O=C(CCCCCCc1ccccc1)c1ncc(C(=O)N2CCSCC2)o1` [Example 6, 7-Phenyl-1-(5-(thiomorpholine-4-carbonyl)oxazol-2-yl)heptan-1-one], the figure is 10 nM.
In assay [4], `CN1CCN(C(=O)c2cnc(C(=O)CCCCCCc3ccccc3)o2)CC1` [Example 7, 1-(5-(4-Methylpiperazine-1-carbonyl)oxazol-2-yl)-7-phenylheptan-1-one] returned a Ki of 80 nM.
Still for that read-out and setting: as for `CNC(=O)c1cnc(C(=O)CCCCCCc2ccccc2)o1` [Example 8, N-Methyl-2-(7-phenylheptanoyl)oxazole-5-carboxamide], the figure is 7 nM.
As for `O=C(CCCCCCc1ccccc1)c1ncc(S(=O)(=O)C(F)(F)F)o1` [Example 22, 7-Phenyl-1-(5-(trifluoromethylsulfonyl)oxazol-2-yl)heptan-1-one], in assay [4], the Ki is > 2 nM.
For `O=C(CCCCCCc1ccccc1)c1ncc(-c2ccccn2)o1` [OL-135], the “inhibition of FAAH” value in assay [5] is reported as “potent inhibitor”. Also, in assay [6], the “analgesic activity in tail emersion test” value is reported as “analgesic activity”. For the same compound, the “analgesic efficacy in hot plate test” value in [7] was “analgesic activity”.
As to `NC(=O)c1cccc(-c2cccc(OC(=O)NC3CCCCC3)c2)c1` [URB-597], in assay [8], the “analgesic efficacy in formalin test” value is listed as “analgesic efficacy”. In addition, the “analgesic efficacy in hot plate test” value in assay [7] is reported as “analgesic efficacy”. Further, the “efficacy in zero plus maze model of anxiety” value in assay [9] is given as “efficacy”.
